One experiment deals with T1, CDK9 and BCL6 (Homo sapiens, UniProt P41182+P50750).
T1 construct: endogenous in cells
As to the kind of experiment: Competition of TCIP-induced cell death with BCL6 inhibitor. The class given is cell-based. The note with it: cell death recorded 72 hours after adding.

Another experiment has as its system DLBCL cell lines. As to the kind of experiment: Chemical rescue: competitive titration of JQ1 or Bl3812 against the TCIP. The format is cell-based. To be noted: titrated against constant JWZ-7-7 / TCIP1.
The subject of experiment [1] is MYC, FOXO3, p21, BCL6, BRD4 protein levels in KARPAS422 and SUDHL5. As to the kind of experiment: Western blots of target proteins in DLBCL cells. The format is cell-based, human. To be noted: titrated against constant 10 nM TCIP1, 8 hours. The method, then: Cells were plated at 1 M/mL and treated with drug at indicated timepoints and doses. 2 M Cells were harvested on ice in RIPA buffer (50 mM Tris-HCl pH 8, 150 mM NaCl, 1% NP-40, 0.1% DOC, 1% SDS, protease inhibitor cocktail (homemade), 1 mM DTT) and 1:200 benzonase (Sigma #E1014) was added and incubated for 20 minutes. After 10 minute centrifugation at 14,000 g and 4° C., the supernatant was collected and protein concentration was measured by Bradford.
Because a high percentage of the TCIP1-treated cells contain fragmented DNA by TUNEL assay at 24 hours (FIG. 31, Panel E), many of the “reduced genes” could reflect DNA fragmentation as part of the apoptotic process and digestion to mononucleosomes. Among the group of genes whose expression was most reduced were MYC and its targets (FIGS. 33B, 36C). The top 100 most TCIP1-reduced genes were examined using ChIP-seq data of human transcription factors in blood cancer cell lines, and found the promoters of TCIP1-inhibited genes highly enriched for MYC binding in multiple datasets (FIG. 33, Panel C). This is significant since many DLBCLs are considered to be MYC-dependent.
Signaling via NF-kB is known to be repressed by BCL6.

Experiment [2] concerns human prostatic cancer cell lines. As to the kind of experiment: Viable cell counts of androgen-dependent prostate cancer cell lines after 72 hours. The format is cell-based. To be noted: 72 hours of exposure, read-out: IC50 of killing of prostate cancer cell lines. The method, then: The AR-BCL6 TCIPs synthesized in I above were tested for their ability to kill prostate cancer cell lines as an indication of their ability to treat human prostatic cancer. AR-TCIPs rapidly and robustly kill human prostatic cancer cell lines. Four different cell lines were used that are androgen-dependent. The drugs were added at the indicated concentrations and viable cell counts determined after 72 hours of exposure. […] The EC50 is shown in each case.

Another experiment has as its target T2, AR and BCL6 (Homo sapiens, UniProt P10275+P41182).
T2 construct: HaloTag; NanoLuc; expressed in transfected cells; host or cells: HEK293
As to the kind of experiment: AR-BCL6 nanoBRET assay in HEK293 cells. The class given is cell-based. To be noted: labeled AR and BCL6. The source says: To ascertain activity of TCIP RCS-02-063 as schematically illustrated in FIG. 1, w a BRET assay was developed to detect in vivo target engagement and ternary complex formation. FIG. 25 (Panels A-B) provides an illustration of the assay as wells the results obtained therefrom. […] A BRET signal at 618 nm was then detected after excitation at 460 nm of HEK293 cells infected with the labeled fusion proteins.

The next experiment deals with NCI-H1105. As to the kind of experiment: Dose response on viability of small cell lung cancer line, resazurin assay. The note with it: NCI-H1105, 72 h treatment. The class given is cell-based. The method, then:
(§1) IC50 of JWZ-7-7, BI-3812, JQ1, and combinations were calculated based on a dose response curve on three small cell lung cancer lines (FIG. 5). The dose response curve on viability was performed in technical replicates and biological triplicate after treating cells for 72 hours across a broad range of concentrations via serial dilutions. Viable cells were measured after treatment via a resazurin assay. The signal for viable assays was normalized to the DMSO treated negative control. A four-parameter non-linear fit was performed to fit a curve to calculate the IC50 for each of the cell lines. The table below describes the calculated IC50 across JWZ-7-7, JQ1, BI-3812 and combination of JQ1 and BI-3812 after 72 h treatment in technical replicates and biological triplicates.

In a further experiment the test system is DMS-79. The experiment is described as above. The class given is cell-based. The note with it: DMS-79, 72 h treatment. The method, then:
as §1

Another experiment concerns NCI-H2196. The experiment is described as above. The format is cell-based. The note with it: NCI-H2196, 72 h treatment. The method, then: as §1
For experiment [3], the system named is MYC, FOXO3, p21, BCL6, BRD4 protein levels in KARPAS422 and SUDHL5. The note with it: known for BET/BRD4 inhibitors; cited from earlier work.
A further experiment has as its system SUDHL5. Description: Killing of lymphoma cell lines by CDK9-BCL6 TCIPs, death recorded 72 hours later. The class given is cell-based, human. The method, then: FIG. 15 CDK9-BCL6 TCIPs Effectively Kill Human Lymphomas. The molecules shown in FIG. 14 were used at the indicated concentrations to treat different lymphoma cell lines, such as SUDHL5 shown here. Death was recorded 72 hours later.

“Also recorded” adds a separate entry of the source. Read-outs that look alike come from different tables or passages of the source.

T2 sequence (P10275 whole entry, other chains not shown): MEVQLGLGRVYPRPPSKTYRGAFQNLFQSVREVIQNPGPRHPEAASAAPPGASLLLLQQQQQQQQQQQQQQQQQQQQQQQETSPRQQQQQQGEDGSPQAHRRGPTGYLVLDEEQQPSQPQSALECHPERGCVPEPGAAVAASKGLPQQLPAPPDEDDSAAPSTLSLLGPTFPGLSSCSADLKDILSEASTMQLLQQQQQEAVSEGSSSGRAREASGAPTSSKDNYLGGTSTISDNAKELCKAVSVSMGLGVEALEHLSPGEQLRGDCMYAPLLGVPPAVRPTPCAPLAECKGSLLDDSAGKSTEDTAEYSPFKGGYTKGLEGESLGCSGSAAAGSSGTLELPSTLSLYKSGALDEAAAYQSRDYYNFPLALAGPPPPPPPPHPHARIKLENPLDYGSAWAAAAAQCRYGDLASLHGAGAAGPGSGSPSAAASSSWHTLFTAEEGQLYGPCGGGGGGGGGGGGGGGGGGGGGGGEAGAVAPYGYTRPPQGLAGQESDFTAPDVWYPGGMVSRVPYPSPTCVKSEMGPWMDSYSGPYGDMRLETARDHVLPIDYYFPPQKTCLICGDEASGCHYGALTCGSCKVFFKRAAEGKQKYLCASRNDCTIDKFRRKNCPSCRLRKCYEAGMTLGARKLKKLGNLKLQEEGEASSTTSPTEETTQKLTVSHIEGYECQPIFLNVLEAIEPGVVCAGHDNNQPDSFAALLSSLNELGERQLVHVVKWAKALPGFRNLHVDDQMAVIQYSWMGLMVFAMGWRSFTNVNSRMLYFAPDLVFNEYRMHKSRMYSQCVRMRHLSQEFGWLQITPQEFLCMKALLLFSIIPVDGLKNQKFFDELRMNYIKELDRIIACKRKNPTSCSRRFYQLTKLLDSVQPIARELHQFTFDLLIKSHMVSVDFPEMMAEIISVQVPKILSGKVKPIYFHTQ

With `CNC(=O)COc1cc2cc(Nc3nc(N4CCC(C(=O)NCCCCCCC(=O)N5CCC(C(=O)Nc6ncc(SCc7ncc(C(C)(C)C)o7)s6)CC5)CC4)ncc3Cl)cc(OC)c2n(C)c1=O` [BAK04-21], the “Ternary complex in cells, competition with Bl3812” value at CDK9 and BCL6 was “forms a ternary complex in cells that can be competed with the BCL6 inhibitor”.

Turning to `CNC(=O)COc1cc2cc(Nc3nc(N4CCC(C(=O)N(C)C)CC4)ncc3Cl)cc(OC)c2n(C)c1=O` [Bl3812], the “Rescue of TCIP-induced cell death” value in the experiment on DLBCL cell lines is recorded as “rescue cell death; also recorded: prevented death by TCIP1”. Besides, the “Reversal of TCIP1-induced protein changes” value in experiment [1] is “reversed p21 upregulation, FOXO3 upregulation, and MYC downregulation”.

The IC50 is the concentration at which inhibition is half-maximal. For the molecule `CNC(=O)COc1cc2cc(Nc3nc(N4CCC(C(=O)NCCCNC(=O)CO/N=C5\CC[C@H]6[C@@H]7CC[C@H]8CC(=O)CC[C@]8(C)[C@H]7CC[C@]56C)CC4)ncc3Cl)cc(OC)c2n(C)c1=O` [RCS-02-063], the IC50 in [2] is about 1 µM; in experiment [2] (Homo sapiens, 72 h) it was about 1.5 µM. Besides, the “BRET signal (target engagement)” value at AR and BCL6 was “robust BRET signal”.

Regarding `Cc1sc2c(c1C)C(c1ccc(Cl)cc1)=N[C@@H](CC(=O)OC(C)(C)C)c1nnc(C)n1-2` [JQ1], the “Rescue of TCIP-induced cell death” value with DLBCL cell lines is reported as “rescue cell death; also recorded: prevented death by TCIP1”. Besides, the results for the IC50 entry with NCI-H1105, in the experiment on DMS-79 and with NCI-H2196 were “Unstable”, 10.1 µM and 14.4 µM, respectively. Moreover, the “Drug level that reduces expression of MYC” value in experiment [3] is 500 nM.

With `CNC(=O)COc1cc2cc(Nc3nc(N4CCC(C(=O)NCCCCCCC(=O)N5CCC(C(=O)Nc6ncc(SCc7ncc(C(C)(C)C)o7)s6)CC5)CC4)ncc3Cl)cc(OC)c2n(C)c1=O` [BAK_04_21], the “Killing of lymphoma cells relative to component and competitor molecules” value in the experiment with SUDHL5 is “more effective at killing lymphoma cells than component molecules and competitor molecules”.

Source of the values: US12685777B2, “Compositions, systems, and methods for modulating a target gene” (The Board of Trustees of the Leland Stanford Junior …, priority 2022, dated 2026).
